From article PMC2680759, “Non-Invasive Molecular Imaging of Fibrosis Using a Collagen-Targeted Peptidomimetic of the Platelet Collagen Receptor Glycoprotein VI” (PLoS ONE, 2009)
Bridges are numbered along the chain shown (N, C = ends). Where no end group is shown, it is not given here.

Experiments:
[1] = molecular target: fibrillar type I collagen (Homo sapiens, UniProt P02452+P08123); test: SPR, biotin-peptides perfused over collagen-coated sensorchip; format: binding; settings: fibrillar type I collagen on CM5-sensorchip
Description: (§1) 9O12.2 IgG was injected over biotin-peptides coupled to an SA-sensorchip in a Biacore 2000 instrument. […] In some experiments, the peptide was reduced by DTT on the sensor chip before the IgG was injected. Competition experiments were performed by mixing the IgG with recombinant soluble GPVI (25 µg.mL^−1). Collagen binding to the peptide was analyzed by injecting type-I collagen (200 µg.mL^−1) onto the peptide-coated sensorchip. Conversely, biotin-peptides (125, 250, 500 and 1000 µg.mL^−1) were perfused over fibrillar collagen immobilized on a CM5-sensorchip.

9O12.2 IgG = test: SPR, 9O12.2 IgG injected over immobilized B-collagelin; format: binding; settings: SPR, peptide reduced by DTT on the sensorchip, IgG 8 µg/ml
Description: as §1

Chain of fibrillar type I collagen (P02452 162-1218 limits assumed): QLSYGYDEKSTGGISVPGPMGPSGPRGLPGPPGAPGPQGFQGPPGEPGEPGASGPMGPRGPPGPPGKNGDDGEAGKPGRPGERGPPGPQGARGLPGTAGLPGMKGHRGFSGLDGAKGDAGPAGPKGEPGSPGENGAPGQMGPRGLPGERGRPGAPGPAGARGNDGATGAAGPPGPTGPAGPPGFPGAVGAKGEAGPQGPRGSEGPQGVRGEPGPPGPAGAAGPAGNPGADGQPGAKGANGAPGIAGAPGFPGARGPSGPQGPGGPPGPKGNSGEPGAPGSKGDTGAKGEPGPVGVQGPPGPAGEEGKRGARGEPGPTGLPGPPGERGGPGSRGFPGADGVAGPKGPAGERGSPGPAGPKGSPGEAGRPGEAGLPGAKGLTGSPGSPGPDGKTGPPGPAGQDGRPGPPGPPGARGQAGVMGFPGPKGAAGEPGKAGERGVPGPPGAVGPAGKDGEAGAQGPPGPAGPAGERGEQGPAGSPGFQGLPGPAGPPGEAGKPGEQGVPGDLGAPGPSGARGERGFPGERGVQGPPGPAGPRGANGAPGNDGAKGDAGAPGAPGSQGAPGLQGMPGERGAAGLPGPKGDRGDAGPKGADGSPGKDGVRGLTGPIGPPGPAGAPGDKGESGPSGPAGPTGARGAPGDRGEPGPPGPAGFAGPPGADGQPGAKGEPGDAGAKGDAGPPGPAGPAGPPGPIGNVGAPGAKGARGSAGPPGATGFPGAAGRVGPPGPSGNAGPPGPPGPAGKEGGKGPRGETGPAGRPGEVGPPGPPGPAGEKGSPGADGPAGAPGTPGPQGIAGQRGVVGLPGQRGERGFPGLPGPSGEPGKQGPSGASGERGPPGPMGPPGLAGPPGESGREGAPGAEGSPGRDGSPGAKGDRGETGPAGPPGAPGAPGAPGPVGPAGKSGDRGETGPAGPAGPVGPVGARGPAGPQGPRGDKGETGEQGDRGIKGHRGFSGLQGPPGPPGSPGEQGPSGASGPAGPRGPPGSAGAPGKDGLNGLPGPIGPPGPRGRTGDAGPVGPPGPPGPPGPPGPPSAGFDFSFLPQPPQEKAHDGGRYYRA
Chain of fibrillar type I collagen (P08123 80-1119 limits assumed): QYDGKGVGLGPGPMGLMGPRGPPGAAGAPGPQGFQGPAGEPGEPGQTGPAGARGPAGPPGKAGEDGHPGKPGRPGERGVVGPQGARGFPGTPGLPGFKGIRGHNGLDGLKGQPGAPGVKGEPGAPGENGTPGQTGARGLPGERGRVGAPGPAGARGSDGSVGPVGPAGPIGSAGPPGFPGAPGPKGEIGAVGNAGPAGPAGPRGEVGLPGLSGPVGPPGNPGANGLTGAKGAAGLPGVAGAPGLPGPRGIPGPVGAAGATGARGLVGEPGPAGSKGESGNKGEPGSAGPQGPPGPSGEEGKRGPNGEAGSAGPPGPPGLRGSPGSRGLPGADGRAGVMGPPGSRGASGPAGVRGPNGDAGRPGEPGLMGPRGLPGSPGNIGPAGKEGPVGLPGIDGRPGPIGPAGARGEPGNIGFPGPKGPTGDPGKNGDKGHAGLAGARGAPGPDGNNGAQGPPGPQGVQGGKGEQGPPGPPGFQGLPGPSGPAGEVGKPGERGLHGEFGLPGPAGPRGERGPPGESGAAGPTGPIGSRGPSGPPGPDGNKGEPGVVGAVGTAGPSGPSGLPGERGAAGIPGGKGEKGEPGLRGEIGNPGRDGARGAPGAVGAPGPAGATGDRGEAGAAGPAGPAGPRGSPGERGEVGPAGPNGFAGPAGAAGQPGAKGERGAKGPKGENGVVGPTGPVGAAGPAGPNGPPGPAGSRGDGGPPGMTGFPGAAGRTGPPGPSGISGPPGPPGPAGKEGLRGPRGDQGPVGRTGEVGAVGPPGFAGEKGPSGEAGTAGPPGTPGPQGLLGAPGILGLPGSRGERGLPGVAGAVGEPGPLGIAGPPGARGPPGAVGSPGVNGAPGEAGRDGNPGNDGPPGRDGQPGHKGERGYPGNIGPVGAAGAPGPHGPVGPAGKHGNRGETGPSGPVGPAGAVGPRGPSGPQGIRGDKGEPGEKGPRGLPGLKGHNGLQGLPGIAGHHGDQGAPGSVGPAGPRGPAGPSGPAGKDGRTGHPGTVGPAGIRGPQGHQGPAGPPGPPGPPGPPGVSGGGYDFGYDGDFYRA

Row | Binding to collagen-coated sensorchip [1] | Binding of 9O12.2 IgG to reduced collagelin (9O12.2 IgG) | Compound
1 | did not bind | – | SGSGCGPQGARGLTGASAGGPC (disulfide 5-22 (inferred)) [reference compound]
2 | – | did not bind | CSCC[C@@H]1NC(=O)[C@H](C(C)C)NC(=O)[C@H](CCCNC(=N)N)NC(=O)CNC(=O)[C@@H]2CCCN2C(=O)[C@@H](NC(=O)CNC(=O)[C@H](CO)NC(=O)CNC(=O)[C@H](CO)NC(=O)CCCC[C@@H]2SC[C@@H]3NC(=O)N[C@@H]32)CSSC[C@@H](C(N)=O)NC(=O)[C@@H]2CCCN2C(=O)CNC(=O)[C@H](CCC(=O)O)NC(=O)[C@H](CC(=O)O)NC(=O)[C@H](CC(=O)O)NC(=O)CNC(=O)[C@H](CC(C)C)NC(=O)[C@H](Cc2c[nH]cn2)NC(=O)[C@H](CC(C)C)NC(=O)CNC(=O)[C@H](Cc2c[nH]cn2)NC1=O [collagelin]
